# Laboratory results: the supplement of paper PMC11208160
# Assay: recombinant UMI read abundance after kanamycin selection (control-corrected) (log10(CPM+1)); higher = more efficient recombination; extreme values may be limits of the assay; sequences stand for … in AGTGCAGAGAAAATCGGCCAGTTTTCTCTGCCTGCAGTCCGCATGCCGTGGGACCCCTTGGGTTCTAACCTGTTGCCTAGATTTATGCAGCGGACTGCCTTTCTCCCAAAGTGATAAACCGG…AGGTTGGTTTCACT; site = the 11-nt donor
# Outline: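 In Escherichia coli, a pool of donor and donor-binding-loop pairs, each with a 12-nt UMI, was tested for the IS621 bridge recombinase. Plating was on IPTG (0.07 mM) plus kanamycin, or without selection, in two replicates. Recombinant UMIs were amplified by PCR across the donor–target junction and sequenced, and counts were reported as log10(CPM+1) after averaging and control-derived scaling.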
# 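Further: IS621 bridge recombinase in Escherichia coli cells against a fixed T5 target plasmid.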
row,Sequence,recombinant UMI read abundance (log10)
1,CGCTCAGCATGGACCGGTTTTCCCGGTAATCCGTATTTGGG (site TGCTCAGCTCC),0.00882
2,CGCTCCGCATGGACCGGTTTTCCCGGTAATCCGTATTTGCA (site CGCTCCGCTTG),1.79
3,CGCTCCTCATGGACCGGTTTTCCCGGTAATCCGTATTTGCA (site CGCTCCTCTTG),2.84
4,CGCTGAGCATGGACCGGTTTTCCCGGTAATCCGTATTTGGT (site CGCTGAGCTAC),1.31
5,CGCTGATCATGGACCGGTTTTCCCGGTAATCCGTATTTGCC (site CGCTGATCTGG),1.88
6,CGCTGGACATGGACCGGTTTTCCCGGTAATCCGTATTTGAA (site CGCTGGACTTT),1.77
7,CGCTGTACATGGACCGGTTTTCCCGGTAATCCGTATTTGCT (site CGCAGTACTAG),0
8,CGCTGTACATGGACCGGTTTTCCCGGTAATCCGTATTTGCT (site CGCCGTACTAG),1.54
9,CGCTGTACATGGACCGGTTTTCCCGGTAATCCGTATTTGCT (site CGCGGTACTAG),0
10,CGCTGTACATGGACCGGTTTTCCCGGTAATCCGTATTTGCT (site CGCTGTACTAG),1.68
11,CGCTTCTCATGGACCGGTTTTCCCGGTAATCCGTATTTGGG (site CACTTCTCTCC),0.0042
12,CGCTTCTCATGGACCGGTTTTCCCGGTAATCCGTATTTGGG (site CCCTTCTCTCC),0.0589
13,CGCTTCTCATGGACCGGTTTTCCCGGTAATCCGTATTTGGG (site CGCTTCTCTCC),0.00699
14,CGCTTCTCATGGACCGGTTTTCCCGGTAATCCGTATTTGGG (site CTCTTCTCTCC),0.0109
15,CGCTTGGCATGGACCGGTTTTCCCGGTAATCCGTATTTGGA (site CACTTGGCTTC),0.361
16,CGCTTGGCATGGACCGGTTTTCCCGGTAATCCGTATTTGGA (site CCCTTGGCTTC),0
17,CGCTTGGCATGGACCGGTTTTCCCGGTAATCCGTATTTGGA (site CGCTTGGCTTC),0.824
18,CGCTTGGCATGGACCGGTTTTCCCGGTAATCCGTATTTGGA (site CTCTTGGCTTC),0.00767
19,CGGAAACCATGGACCGGTTTTCCCGGTAATCCGTATTTGCT (site CGGAAACCTAG),0
20,CGGAAACCATGGACCGGTTTTCCCGGTAATCCGTATTTGCT (site CGGAATCCTAA),0
21,CGGAACCCATGGACCGGTTTTCCCGGTAATCCGTATTTGGT (site CGGAACCCTAC),1.06
22,CGGAACCCATGGACCGGTTTTCCCGGTAATCCGTATTTGGT (site CGGAATCCTAA),0
23,CGGAACCCATGGACCGGTTTTCCCGGTAATCCGTATTTGTG (site CGGAACCCTCA),1.13
24,CGGAACCCATGGACCGGTTTTCCCGGTAATCCGTATTTGTG (site CGGAATCCTAA),0
25,CGGAAGACATGGACCGGTTTTCCCGGTAATCCGTATTTGTG (site CGGAAGACTCA),2.67
26,CGGAATCCATGGACCGGTTTTCCCGGTAATCCGTATTTGAC (site CGGAATCCTAA),0.003

row,Sequence,recombinant UMI read abundance (log10)
1,CGGAATCCATGGACCGGTTTTCCCGGTAATCCGTATTTGAC (site CGGAATCCTGT),1.1
2,CGGAATCCATGGACCGGTTTTCCCGGTAATCCGTATTTGAT (site CGGAATCCTAA),0
3,CGGAATCCATGGACCGGTTTTCCCGGTAATCCGTATTTGAT (site CGGAATCCTAC),0.0207
4,CGGAATCCATGGACCGGTTTTCCCGGTAATCCGTATTTGAT (site CGGAATCCTAG),0
5,CGGAATCCATGGACCGGTTTTCCCGGTAATCCGTATTTGAT (site CGGAATCCTAT),0.646
6,CGGAATCCATGGACCGGTTTTCCCGGTAATCCGTATTTGGT (site CGGAATCCTAA),0
7,CGGAATCCATGGACCGGTTTTCCCGGTAATCCGTATTTGGT (site CGGAATCCTAC),0.913
8,CGGAATCCATGGACCGGTTTTCCCGGTAATCCGTATTTGGT (site CGGAATCCTAG),0
9,CGGAATCCATGGACCGGTTTTCCCGGTAATCCGTATTTGGT (site CGGAATCCTAT),0
10,CGGAATCCATGGACCGGTTTTCCCGGTAATCCGTATTTGTA (site CGGAATCCTAA),0
11,CGGAATCCATGGACCGGTTTTCCCGGTAATCCGTATTTGTA (site CGGAATCCTCA),0.781
12,CGGAATCCATGGACCGGTTTTCCCGGTAATCCGTATTTGTA (site CGGAATCCTGA),0
13,CGGAATCCATGGACCGGTTTTCCCGGTAATCCGTATTTGTA (site CGGAATCCTTA),1.29
14,CGGAATGCATGGACCGGTTTTCCCGGTAATCCGTATTTGGT (site CGGAATCCTAA),0
15,CGGAATGCATGGACCGGTTTTCCCGGTAATCCGTATTTGGT (site CGGAATGCTAC),2.27
16,CGGAATTCATGGACCGGTTTTCCCGGTAATCCGTATTTGTT (site CGGAATACTAA),0.00592
17,CGGAATTCATGGACCGGTTTTCCCGGTAATCCGTATTTGTT (site CGGAATCCTAA),0.0141
18,CGGAATTCATGGACCGGTTTTCCCGGTAATCCGTATTTGTT (site CGGAATGCTAA),0.00572
19,CGGAATTCATGGACCGGTTTTCCCGGTAATCCGTATTTGTT (site CGGAATTCTAA),2.72
20,CGGACATCATGGACCGGTTTTCCCGGTAATCCGTATTTGCG (site CGGACATCTAG),0
21,CGGACATCATGGACCGGTTTTCCCGGTAATCCGTATTTGCG (site CGGACATCTCG),2.25
22,CGGACATCATGGACCGGTTTTCCCGGTAATCCGTATTTGCG (site CGGACATCTGG),0
23,CGGACATCATGGACCGGTTTTCCCGGTAATCCGTATTTGCG (site CGGACATCTTG),0.00626
24,CGGACCCCATGGACCGGTTTTCCCGGTAATCCGTATTTGTT (site CGGAATCCTAA),0.00407
25,CGGACCCCATGGACCGGTTTTCCCGGTAATCCGTATTTGTT (site CGGACCCCTAA),1.02
26,CGGACTACATGGACCGGTTTTCCCGGTAATCCGTATTTGCG (site CGGACTACTCG),1.64
